Measured values published in patent publication US4185119A, “Antiallergic methods” (priority 1977, dated 1980).

How the values were obtained:
[1] = test system: P.C.A. reaction in Donryu strain rats; assay: Inhibition of P.C.A. reaction in Donryu strain rats, rat hyperimmune antiserum against egg albumin; assay type: in vivo; settings: Donryu rat (Table 2-II)
Description: (b) Rat hyperimmune antiserum against egg albumin
A solution of egg albumin (20 mg.) in normal saline (1 ml.) was mixed with complete adjuvant (1 ml.) (made by Difco Laboratories) to given an emulsion. The emulsion was subcutaneously given in a single dose of 1 ml. divided equally (0.25 ml.) to the four pads of male S.D. strain rats aged 6 weeks, each weighing about 200 g. (The first immunization).
One week after the administration, an emulsion which was prepared by mixing a solution of egg albumin (10 mg.) in normal saline (1 ml.) with complete adjuvant (1 ml.) was further given subcutaneously (at 3 places) and intramuscularly (at 1 place) in a single dose of 1 ml. divided equally (0.25 ml.) to thigh of the same rats. (The second immunization).
Three weeks after the second administration, a solution of egg albumin (1 mg.) in normal saline (1 ml.) was further given intracutaneously in a single dose of 0.3 ml. divided equally (0.1 ml.) to 3 places of the same rats. (The third immunization).
One week after the third administration, blood samples were collected from rats and treated in substantially the same manner as described in the above item (a). The antisera thus obtained were stored at -80° C. prior to use.
Further, an inhibition test on P.C.A. reaction using the rat hyperimmuneantiserum against egg albumin was carried out in substantially the same manner as described in the above, excepting that the intravenous administration to bring about P.C.A. was carried out at 5.5 hours after the administration of the serum and antiserum. And inhibitory effect on the P.C.A. reaction was also calculated in substantially the same manner as described in the above.
(§1) (b) Inhibitory effect on P.C.A. reaction in Donryu strain rat
(§2) The following tests were carried out in substantially the same manner as described in the above item (2)-(a).
(§3) (i) Test compound: N:methyllaurotetanine hydrochloride
(§4) Test animal: Male Donryu strain rats aged 8 weeks, weighing about 130 g.
(§5) Challenge: A normal saline (0.3 ml.) containing egg albumin (4.5 mg.) and Evans blue (1.5 mg.).
(§6) (ii) Test commpound: glaucine or boldine
(§7) Test animal: Male Donryu strain rats aged 8 weeks, weighing 140-150 g.
(§8) Challenge: the same as the above item (b)-(i).

[2] = test system: P.C.A. reaction in I.C.R. strain mice; assay: Inhibition test of P.C.A. reaction in I.C.R. strain mice, rat hyperimmune antiserum against egg albumin; assay type: in vivo; settings: intraperitoneal, I.C.R. mouse (Table 3-II)
Description: (c) Inhibition test of P.C.A. reaction in I.C.R. (Institute of Cancer Research) strain mice
(i) Test compound: N-methyllaurotetanine hydrochloride
Fifteen male I.C.R. strain mice aged 7 weeks, weighing about 35 g were divided equally into 3 groups. Each of the groups was composed of 5 mice, (in case of intraperioneal administration of the test compound to the mouse, each of the groups was composed of […]).
Ten-hold diluted solution (0.05 ml.) of the rat hyperimmune antiserum against egg albumin was given intracutaneously to the depilated back of each mouse of Group I and Group II, respectively. On the other hand, a rat normal serum (0.05 ml.) was given intracutaneously to the depilated back of each mouse of Group III. Three hours after the administration, a normal saline (0.1 ml.) containing egg albumin (1.5 mg.) and Evans blue (0.5 mg.) was given intravenously to each mouse of Groups I-III in order to bring about P.C.A., respectively.
Beforehand, 3 hours and 1 hours before the admnistration to bring about P.C.A., a normal saline (0.3 ml.) containing the prescribed amount of N-methyllaurotetanine hydrochloride and carboxymethylcellulose (0.5%) was given orally or intraperitoneally to each mouse of Group I, and a normal saline (0.3 ml.) containing only carboxymethylcellulose (0.5%) was given orally or intraperitoneally to each mouse of Group II.
The procedure followed by the above, was carried out in substantially the same manner as described in the above item (2)-(a). […]

[3] = cited from earlier work
Acute toxicity in mice = settings: mouse, in vivo, ip; intraperitoneal, male I.C.R. mice, survivals at one week
Description: Test: Acute Toxicity in Mice
A normal saline containing each of the test compound mentioned below and 0.5% carboxymethylcellulose was given intraperitoneally to male I.C.R. (Institute of Cancer Research) strain mice aged 5 weeks, weighing 33-35 g. LD50 values were calculated from the survivals of mice at one week after the administration of the test compound.

[4] = Apomorphine-like side effect (summary of side effect tests); assay type: in vivo; settings: summary statement
Source text: (i) Rotational behavior inducing action in rats unilaterally lesioned in substantia nigra,
(ii) Gnawing behavior including action in rats, and
(iii) Vomiting-inducing action in dogs

[5] = test system: P.C.A. reaction in Donryu strain rats; assay: Inhibition of P.C.A. reaction in Donryu strain rats, rat reaginic antiserum against egg albumin; assay type: in vivo; settings: Donryu rat (Table 2-II)
Description: (a) Rat reaginic antiserum against egg albumin
A solution of egg albumin (2 mg) in B. pertussis-diphtheria-tetanus mixed vaccine (1 ml.) (made by Takeda Chemical Industries Ltd.) was mixed with an equal volume of incomplete adjuvant (made by Difco Laboratories) to give an emulsion. The emulsion was given subcutaneously in a single dose of 1 ml. divided equally (0.25 ml.) to the four foot pads of male S.D. (Sprague-Dawley) strain rats aged 8 weeks, each weighing about 300 g.
Five days after the administration, a solution of egg albumin (0.5 mg.) in B. pertussis-diphtheria-tetanus mixed vaccine (0.5 ml.) was further given intramuscularly in a single dose of 0.5 ml. divided equally (0.25 ml.) to 2 places of thigh of the same rats.
Three days after the second administration, blood samples were collected from femoral artery of the rats and allowed to stand at ambient temperature for 5 hours. The separated supernatant was centrifuged at 4° C. (10,000 r.p.m.× 1 hour). The antisera thus obtained were stored at -80° C. prior to use.
as §1, §2, §3, §4, §5, §6, §7, §8

[6] = Antiallergic action (summary of tests); assay type: in vivo; settings: summary statement
Source text: Test: Antiallergic Action
(2) Inhibition test of P.C.A. (Passive Cutaneous Anaphylaxis) reaction
(3) Inhibition test of anaphylactic asthma in guinea-pigs

Structure (SMILES): COc1cc2c(cc1O)C[C@H]1c3c(cc(O)c(OC)c3-2)CCN1C [Boldine, boldine]
- Inhibitory effect on P.C.A. reaction ([1]; intraperitoneal, 66 mg/kg): 30%
- Inhibitory effect on P.C.A. reaction ([2]; 30 mg/kg): 20%
- diuretic activity ([3]; THE MERCK INDEX EIGHTH EDITION, Page 159 (1968)): diuretic activity
- LD50 at 168 h (Acute toxicity in mice): 145 mg/kg
- apomorphine-like side effect [4]: without apomorphine-like side effect
- Inhibitory effect on P.C.A. reaction ([5]; intraperitoneal, 66 mg/kg): 40%
- antiallergic effects [6]: much superior antiallergic effects

Structure (SMILES): COc1cc2c(cc1OC)-c1c(OC)c(OC)cc3c1[C@H](C2)N(C)CC3 [Glaucine, glaucine]
- Inhibitory effect on P.C.A. reaction ([1]; intraperitoneal, 20 mg/kg): 50%
- Inhibitory effect on P.C.A. reaction ([1]; intraperitoneal, 60 mg/kg): 85%
- Inhibitory effect on P.C.A. reaction ([1]; oral, 50 mg/kg): 60%
- Inhibitory effect on P.C.A. reaction ([1]; oral, 100 mg/kg): 80%
- Inhibitory effect on P.C.A. reaction ([1]; oral, 200 mg/kg): 90%
- Inhibitory effect on P.C.A. reaction ([2]; 10 mg/kg): 50%
- Inhibitory effect on P.C.A. reaction ([2]; 30 mg/kg): 60%
- adrenolytic action and antitussive properties ([3]; Chemical Abstracts Vol. 68, 94521Z (1968)): adrenolytic action and antitussive properties
- LD50 at 168 h (Acute toxicity in mice): 212 mg/kg
- apomorphine-like side effect [4]: without apomorphine-like side effect
- Inhibitory effect on P.C.A. reaction ([5]; intraperitoneal, 20 mg/kg): 60%
- Inhibitory effect on P.C.A. reaction ([5]; intraperitoneal, 60 mg/kg): 95%
- Inhibitory effect on P.C.A. reaction ([5]; oral, 50 mg/kg): 70%
- Inhibitory effect on P.C.A. reaction ([5]; oral, 100 mg/kg): 80%
- Inhibitory effect on P.C.A. reaction ([5]; oral, 200 mg/kg): 95%
- antiallergic effects [6]: much superior antiallergic effects

Structure (SMILES): COc1cc2c(cc1O)CC1c3c(cc(OC)c(OC)c3-2)CCN1C (centres unmarked) [N-methyllaurotetanine]
- curariform activity ([3]; Japanese Patent Publication No. 24092/1961): curariform activity
- apomorphine-like side effect [4]: without apomorphine-like side effect
- antiallergic effects [6]: much superior antiallergic effects
